Test results reported in ChEMBL document CHEMBL3792317, “Novel tetrazoloquinoline-rhodanine conjugates: Highly efficient synthesis and biological evaluation” (Bioorg Med Chem Lett, 2016).
Converted amounts (≈) assume the structure as drawn. The source made the active and inactive calls. No cut-off for these calls is given here.

Legend:
[1] = Selectivity index, ratio of GI50 for human PANC1 cells to MIC for Mycobacterium bovis BCG ATCC 35743; format: toxicity, cell-based, PANC-1; settings: read-out: Selectivity Index
[2] = Selectivity index, ratio of GI50 for human HeLa cells to MIC for Mycobacterium bovis BCG ATCC 35743; format: toxicity, cell-based; settings: read-out: Selectivity Index
[3] = tested on: Mycobacterium tuberculosis; test: Antitubercular activity against Mycobacterium tuberculosis H37Ra ATCC 25177 at 10 ug/ml incubated for 40 mins by XTT Reduction Menadione Assay; format: functional; settings: H37Ra ATCC 25177, 40 min, read-out: GI
[4] = Selectivity index, ratio of GI50 for human HeLa cells to MIC for Mycobacterium tuberculosis H37Ra ATCC 25177; format: toxicity, cell-based; settings: read-out: Selectivity Index
Aspergillus niger = test: Antifungal activity against Aspergillus niger NCIM 1196 after 48 hrs by agar cup plate method; format: functional; settings: NCIM 1196, 48 h
[5] = tested on: Mycobacterium tuberculosis; test: Antitubercular activity against Mycobacterium tuberculosis H37Ra ATCC 25177 at 30 ug/ml incubated for 40 mins by XTT Reduction Menadione Assay; format: functional; settings: H37Ra ATCC 25177, 40 min, read-out: GI
Staphylococcus aureus = test: Antibacterial activity against Staphylococcus aureus after 18 hrs by broth dilution method; format: functional
[6] = (§1) Cytotoxicity against human HeLa cells after 48 hrs by MTT assay; format: cell-based; settings: HeLa cells
HeLa = test: as §1; format: cell-based; settings: hela, 48 h
Cryptococcus neoformans [7] = test: Antifungal activity against Cryptococcus neoformans NCIM 576 after 48 hrs by agar cup plate method; format: functional; settings: NCIM 576, 48 h
[8] = (§2) Cytotoxicity against human A549 cells after 48 hrs by MTT assay; format: cell-based; settings: A549 cells
A549 = test: as §2; format: cell-based; settings: a549, 48 h
[9] = Antitubercular activity against Mycobacterium bovis BCG ATCC 35743 incubated for 40 mins by XTT Reduction Menadione Assay; format: functional, Mycobacterium bovis BCG str. ATCC 35743; settings: Mycobacterium tuberculosis variant bovis BCG, ATCC 35743, 40 min
Candida albicans = test: Antifungal activity against Candida albicans NCIM 3471 after 48 hrs by agar cup plate method; format: functional; settings: NCIM 3471, 48 h
[10] = tested on: Mycobacterium bovis BCG str. ATCC 35743; test: Antitubercular activity against active Mycobacterium bovis BCG ATCC 35743 incubated for 40 mins by XTT Reduction Menadione Assay; format: functional
[11] = Selectivity index, ratio of GI50 for human PANC1 cells to MIC for Mycobacterium tuberculosis H37Ra ATCC 25177; format: toxicity, cell-based, PANC-1; settings: read-out: Selectivity Index
[12] = Selectivity index, ratio of GI50 for human THP1 cells to MIC for Mycobacterium tuberculosis H37Ra ATCC 25177; format: toxicity, cell-based, THP-1; settings: read-out: Selectivity Index
[13] = tested on: Mycobacterium tuberculosis; test: Antitubercular activity against dormant Mycobacterium tuberculosis H37Ra ATCC 25177 incubated for 40 mins by XTT Reduction Menadione Assay; format: functional; settings: H37Ra ATCC 25177, 40 min
[14] = Selectivity index, ratio of GI50 for human A549 cells to MIC for Mycobacterium bovis BCG ATCC 35743; format: toxicity, cell-based; settings: read-out: Selectivity Index
Pseudomonas fluorescens = test: Antibacterial activity against Pseudomonas fluorescens after 18 hrs by broth dilution method; format: functional
Fusarium oxysporum [15] = test: Antifungal activity against Fusarium oxysporum NCIM 1332 after 48 hrs by agar cup plate method; format: functional; settings: NCIM 1332, 48 h
Aspergillus flavus = test: Antifungal activity against Aspergillus flavus NCIM 539 after 48 hrs by agar cup plate method; format: functional; settings: NCIM 539, 48 h
[16] = tested on: Mycobacterium bovis BCG str. ATCC 35743; test: Antitubercular activity against dormant Mycobacterium bovis BCG ATCC 35743 at 3 ug/ml incubated for 40 mins by XTT Reduction Menadione Assay; format: functional
[17] = Cytotoxicity against human PANC1 cells after 48 hrs by MTT assay; format: cell-based, PANC-1; settings: for GI50 at 48 h: PANC1 cells; for GI90: panc-1, 48 h
Escherichia coli = test: Antibacterial activity against Escherichia coli after 18 hrs by broth dilution method; format: functional
[18] = tested on: Mycobacterium tuberculosis; test: Antitubercular activity against active Mycobacterium tuberculosis H37Ra ATCC 25177 incubated for 40 mins by XTT Reduction Menadione Assay; format: functional; settings: H37Ra ATCC 25177, 40 min
Bacillus subtilis = test: Antibacterial activity against Bacillus subtilis after 18 hrs by broth dilution method; format: functional
[19] = Selectivity index, ratio of GI50 for human A549 cells to MIC for Mycobacterium tuberculosis H37Ra ATCC 25177; format: toxicity, cell-based; settings: read-out: Selectivity Index
[20] = tested on: Mycobacterium bovis BCG str. ATCC 35743; test: Antitubercular activity against dormant Mycobacterium bovis BCG ATCC 35743 at 10 ug/ml incubated for 40 mins by XTT Reduction Menadione Assay; format: functional
[21] = tested on: Mycobacterium tuberculosis; test: Antitubercular activity against Mycobacterium tuberculosis H37Ra ATCC 25177 at 3 ug/ml incubated for 40 mins by XTT Reduction Menadione Assay; format: functional; settings: H37Ra ATCC 25177, 40 min, read-out: GI
[22] = tested on: Mycobacterium bovis BCG str. ATCC 35743; test: Antitubercular activity against dormant Mycobacterium bovis BCG ATCC 35743 incubated for 40 mins by XTT Reduction Menadione Assay; format: functional
[23] = Selectivity index, ratio of GI50 for human THP1 cells to MIC for Mycobacterium bovis BCG ATCC 35743; format: toxicity, cell-based, THP-1; settings: read-out: Selectivity Index
[24] = tested on: Mycobacterium tuberculosis; test: Antitubercular activity against Mycobacterium tuberculosis H37Ra ATCC 25177 incubated for 40 mins by XTT Reduction Menadione Assay; format: functional; settings: H37Ra ATCC 25177, 40 min
[25] = Cytotoxicity against human THP1 cells after 48 hrs by MTT assay; format: cell-based, THP-1; settings: for GI50 at 48 h: THP1 cells; for GI90: thp-1, 48 h
[26] = tested on: Mycobacterium bovis BCG str. ATCC 35743; test: Antitubercular activity against dormant Mycobacterium bovis BCG ATCC 35743 at 30 ug/ml incubated for 40 mins by XTT Reduction Menadione Assay; format: functional
Cryptococcus neoformans [27] = test: Antifungal activity against Cryptococcus neoformans NCIM 576 up to 200 ug/ml after 48 hrs by agar cup plate method; format: functional, organism-based
Fusarium oxysporum [28] = test: Antifungal activity against Fusarium oxysporum NCIM 1332 up to 200 ug/ml after 48 hrs by agar cup plate method; format: functional, organism-based

Cc1ccc2cc(/C=C3\SC(=S)NC3=O)c3nnnn3c2c1
selectivity ratio [1]: 49.8
selectivity ratio [2]: 49.8
inhibition of growth at 10 µg/mL [3]: 99.7%
selectivity ratio [4]: 22.2
MIC (Aspergillus niger): 100 µg/mL (≈ 305 µM)
inhibition of growth at 30 µg/mL [5]: 98%
MIC (Staphylococcus aureus): 205 µg/mL (≈ 626 µM)
GI50 at 48 h [6]: > 100 µg/mL
GI90 (HeLa): > 100 µg/mL
MIC (Cryptococcus neoformans [7]): 100 µg/mL (≈ 305 µM)
GI50 at 48 h [8]: > 100 µg/mL
GI90 (A549): > 100 µg/mL
MIC [9]: 2.01 µg/mL (≈ 6.14 µM)
MIC (Candida albicans): 150 µg/mL (≈ 458 µM)
IC90 [10]: 2.25 µg/mL (≈ 6.87 µM)
selectivity ratio [11]: 22.2
selectivity ratio [12]: 22.2
IC90 [13]: 4.5 µg/mL (≈ 13.7 µM)
selectivity ratio [14]: 49.8
MIC (Pseudomonas fluorescens): 211 µg/mL (≈ 643 µM)
MIC (Fusarium oxysporum [15]): 150 µg/mL (≈ 458 µM)
MIC (Aspergillus flavus): 125 µg/mL (≈ 382 µM)
growth inhibition (GI) [16]: 100%
GI50 at 48 h [17]: > 100 µg/mL
GI90 [17]: > 100 µg/mL
MIC (Escherichia coli): 208 µg/mL (≈ 636 µM)
IC90 [18]: 5.5 µg/mL (≈ 16.8 µM)
MIC (Bacillus subtilis): 188 µg/mL (≈ 574 µM)
selectivity ratio [19]: 22.2
growth inhibition (GI) [20]: 100%
inhibition of growth at 3 µg/mL [21]: 82.9%
IC90 [22]: 2.01 µg/mL (≈ 6.14 µM)
selectivity ratio [23]: 49.8
MIC [24]: 4.5 µg/mL (≈ 13.7 µM)
GI50 at 48 h [25]: > 100 µg/mL
GI90 [25]: > 100 µg/mL
growth inhibition (GI) [26]: 97.8%

COc1ccc2c(c1)cc(/C=C1\SC(=S)N(CCC(=O)O)C1=O)c1nnnn12
MIC (Cryptococcus neoformans [27]): inactive
inhibition of growth at 10 µg/mL [3]: 27.9%
MIC (Aspergillus niger): 150 µg/mL (≈ 361 µM)
inhibition of growth at 30 µg/mL [5]: 15.9%
MIC [9]: > 250 µg/mL
MIC (Candida albicans): 150 µg/mL (≈ 361 µM)
MIC (Fusarium oxysporum [15]): 125 µg/mL (≈ 301 µM)
MIC (Aspergillus flavus): 150 µg/mL (≈ 361 µM)
growth inhibition (GI) [16]: 8.94%
growth inhibition (GI) [20]: 16%
inhibition of growth at 3 µg/mL [21]: -0.42%
MIC [24]: > 250 µg/mL
growth inhibition (GI) [26]: 23.9%

Cc1ccc2cc(/C=C3\SC(=S)N(CCC(=O)O)C3=O)c3nnnn3c2c1
inhibition of growth at 10 µg/mL [3]: 30%
MIC (Aspergillus niger): 100 µg/mL (≈ 250 µM)
inhibition of growth at 30 µg/mL [5]: 60.3%
GI50 at 48 h [6]: > 100 µg/mL
GI90 (HeLa): > 100 µg/mL
MIC (Cryptococcus neoformans [7]): 50 µg/mL (≈ 125 µM)
GI50 at 48 h [8]: > 100 µg/mL
GI90 (A549): > 100 µg/mL
MIC [9]: 45.4 µg/mL (≈ 114 µM)
MIC (Candida albicans): 25 µg/mL (≈ 62.6 µM)
IC90 [13]: 42.2 µg/mL (≈ 106 µM)
MIC (Fusarium oxysporum [15]): 50 µg/mL (≈ 125 µM)
MIC (Aspergillus flavus): 50 µg/mL (≈ 125 µM)
growth inhibition (GI) [16]: 4.55%
GI50 at 48 h [17]: > 100 µg/mL
GI90 [17]: > 100 µg/mL
IC90 [18]: 45 µg/mL (≈ 113 µM)
growth inhibition (GI) [20]: 12.3%
inhibition of growth at 3 µg/mL [21]: 16.6%
IC90 [22]: 45.4 µg/mL (≈ 114 µM)
MIC [24]: 42.2 µg/mL (≈ 106 µM)
GI50 at 48 h [25]: > 100 µg/mL
GI90 [25]: > 100 µg/mL
growth inhibition (GI) [26]: 41.2%

COc1ccc2cc(/C=C3\SC(=S)N(CC(=O)O)C3=O)c3nnnn3c2c1
selectivity ratio [1]: 4.13
selectivity ratio [2]: 4.13
inhibition of growth at 10 µg/mL [3]: 13.6%
selectivity ratio [4]: 1.1
MIC (Aspergillus niger): 150 µg/mL (≈ 374 µM)
inhibition of growth at 30 µg/mL [5]: 97.2%
MIC (Fusarium oxysporum [28]): inactive
GI50 at 48 h [6]: > 100 µg/mL
GI90 (HeLa): > 100 µg/mL
MIC (Cryptococcus neoformans [7]): 175 µg/mL (≈ 436 µM)
GI50 at 48 h [8]: > 100 µg/mL
GI90 (A549): > 100 µg/mL
MIC [9]: 121 µg/mL (≈ 302 µM)
MIC (Candida albicans): 100 µg/mL (≈ 249 µM)
selectivity ratio [11]: 1.1
selectivity ratio [12]: 1.1
IC90 [13]: 92.3 µg/mL (≈ 230 µM)
selectivity ratio [14]: 4.13
MIC (Aspergillus flavus): 150 µg/mL (≈ 374 µM)
growth inhibition (GI) [16]: 12.7%
GI50 at 48 h [17]: > 100 µg/mL
GI90 [17]: > 100 µg/mL
IC90 [18]: 159 µg/mL (≈ 396 µM)
selectivity ratio [19]: 1.1
growth inhibition (GI) [20]: 37.3%
inhibition of growth at 3 µg/mL [21]: 3.59%
selectivity ratio [23]: 4.13
MIC [24]: 92.3 µg/mL (≈ 230 µM)
GI50 at 48 h [25]: > 100 µg/mL
GI90 [25]: > 100 µg/mL
growth inhibition (GI) [26]: 25.6%
